Molecular target: T1, 3-phosphoinositide-dependent protein kinase 1 (Homo sapiens, UniProt O15530)
T1 sequence (O15530 whole entry): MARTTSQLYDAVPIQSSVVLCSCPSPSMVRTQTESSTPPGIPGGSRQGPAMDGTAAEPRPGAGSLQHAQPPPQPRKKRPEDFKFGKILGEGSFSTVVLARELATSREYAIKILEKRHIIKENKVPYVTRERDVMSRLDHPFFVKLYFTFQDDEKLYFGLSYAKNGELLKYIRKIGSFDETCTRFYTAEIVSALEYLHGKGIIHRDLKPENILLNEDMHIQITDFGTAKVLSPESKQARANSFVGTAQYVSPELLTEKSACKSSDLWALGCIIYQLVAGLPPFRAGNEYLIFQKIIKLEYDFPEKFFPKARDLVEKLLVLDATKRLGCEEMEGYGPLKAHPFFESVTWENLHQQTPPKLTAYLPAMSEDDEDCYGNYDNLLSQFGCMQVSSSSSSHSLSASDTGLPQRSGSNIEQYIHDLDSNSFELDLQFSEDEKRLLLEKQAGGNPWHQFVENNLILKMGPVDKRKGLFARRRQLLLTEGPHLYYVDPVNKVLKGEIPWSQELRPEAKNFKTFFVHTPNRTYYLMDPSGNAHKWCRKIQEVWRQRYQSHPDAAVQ
Experiment: Inhibition Assay: The compound inhibits the target protein in the enzymatic PDK1 inhibition assay.

Row | SMILES | IC50 [nM]
1 | Cn1cc(-c2cnc3[nH]cc(-c4cc(N(CCC#N)c5ccccc5)nc(N)n4)c3c2)cn1 | 7.9
2 | CN(c1cccc(F)c1)c1cc(-c2c[nH]c3ncc(-c4cnn(C)c4)cc23)ncn1 | 190

Source: ChEMBL document CHEMBL3638434, “1H-pyrrolo[2,3 b]-pyridine derivatives” (2014)
